Values belong to the molecule of their own block, whether it stands above or below them.
Assays:
[1] = system: Human monocytes (CD14+ cells); experiment: In vitro cell migration (trans-well chemotaxis) assay of human monocytes; format: cell-based; conditions: for reduction of monocyte chemotaxis towards MCP-1 and RANTES (50 ng/ml each): 30 min pre-incubation, PC 5 μg/ml, partially oxidized PAPC 40 μg/ml, PGPC 5 μg/ml, VB-201 5 μg/ml
Protocol: Following incubation, cells were loaded to the upper chamber and allowed to migrate for 3.5 hours towards 0.5% fetal bovine serum/RPMI-1640 medium supplemented with recombinant human MCP-1 and RANTES (50 ng/ml each).
In order to further ascertain the significance of ERK1/2 phosphorylation and MEK1/2 phosphorylation to monocyte chemotaxis, the effect of the RAF inhibitor GW5074, which reduces MEK and ERK phosphorylation, on monocyte chemotaxis was determined in a trans-well migration assay using a combination of MCP-1 ([…]) and RANTES (70 ng/ml) as attractant. Monocytes were pre-treated with 5 μM GW5074 for 30 minutes prior to seeding in the migration chamber.
For this purpose, monocytes from healthy donors were pre-incubated for 30 min with either solvent (0.005% ethanol/PBS), phosphatidylcholine (PC; 5 μg/ml), partially oxidized PAPC (24 h oxidation; 40 μg/ml) or PGPC (5 μg/ml), and allowed to migrate towards recombinant human MCP-1 (CCL2; ligand for CCR2) and RANTES (CCL5; ligand for CCR1, CCR3, CCR5, US28) as attractants (50 ng/ml each). […]

THP-1 cells = experiment: Trans-well chemotaxis assay of THP-1 cells; format: cell-based, human; conditions: Wortmannin 1 μmol/L, Rapamycin 1.1 μmol/L, GW5074 1 μmol/L
Protocol: For chemo-attraction of monocytes, RANTES (100 ng/ml), MIP-1α (50 ng/ml) or MCP-1 (50 ng/ml) were dissolved in 0.5% fetal bovine serum(FBS)/RPMI-1640 medium and placed at the lower chamber of QCM™ 24-well migration assay plate (Corning-Costar; 5 μm pores). For chemo-attraction of CD4+ cells, 0.5% FBS/RPMI-1640 solution containing RANTES (100 ng/ml) and SDF-1α (50 ng/ml) was used, using the same plate setting. Migration assay was conducted by seeding 300,000 treated cells in the upper chamber, followed by incubation of 3-4 hours. Subsequently, the number of cells which migrated to the medium in the lower compartment was determined by FACS.
Data are mean f SD from 4 experiments in triplicates, normalized to untreated cells. **, p<0.001.

human monocytes = experiment: ROS formation in human monocytes (DCF, FACS); format: cell-based; conditions: overnight; VB-201 10 μg/ml, PGPC 10 μg/ml, OxPAPC 100 μg/ml; relative to PBS
Protocol: Detection of ROS was performed through FACS quantification of the oxidation product dichlorodihydrofluorescein (DCF). Data are mean±SD from 3-4 experiments performed in duplicates. FIG. 23B is a histogram from a representative experiment showing DCF levels in treated cells.

TLR4 = biological target: T1, TLR4 (Mus musculus, UniProt Q9QUK6); conditions: RAW 264.7 murine macrophages
T1 sequence (Q9QUK6 26-835): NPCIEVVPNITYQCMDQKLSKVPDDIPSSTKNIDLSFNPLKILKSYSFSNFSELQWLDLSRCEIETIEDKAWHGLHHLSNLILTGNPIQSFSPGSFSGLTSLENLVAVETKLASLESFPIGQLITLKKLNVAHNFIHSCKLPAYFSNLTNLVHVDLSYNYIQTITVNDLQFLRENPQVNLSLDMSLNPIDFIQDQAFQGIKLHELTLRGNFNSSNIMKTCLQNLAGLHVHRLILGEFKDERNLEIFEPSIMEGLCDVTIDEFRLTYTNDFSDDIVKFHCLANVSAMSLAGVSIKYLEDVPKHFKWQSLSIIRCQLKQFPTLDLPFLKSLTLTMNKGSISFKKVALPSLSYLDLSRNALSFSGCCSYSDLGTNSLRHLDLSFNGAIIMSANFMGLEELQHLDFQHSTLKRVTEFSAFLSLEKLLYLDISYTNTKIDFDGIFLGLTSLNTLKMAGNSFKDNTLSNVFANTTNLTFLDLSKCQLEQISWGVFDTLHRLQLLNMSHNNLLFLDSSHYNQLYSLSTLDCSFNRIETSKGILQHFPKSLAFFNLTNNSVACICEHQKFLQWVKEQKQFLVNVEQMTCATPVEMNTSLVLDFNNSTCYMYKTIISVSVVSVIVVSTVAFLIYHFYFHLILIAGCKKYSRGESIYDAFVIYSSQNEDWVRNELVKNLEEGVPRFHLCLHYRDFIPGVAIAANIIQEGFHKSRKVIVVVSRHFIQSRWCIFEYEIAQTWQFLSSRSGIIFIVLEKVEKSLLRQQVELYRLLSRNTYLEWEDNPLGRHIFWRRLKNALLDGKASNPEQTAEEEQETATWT
T1 sequence (Q9JHF9 19-160 partner): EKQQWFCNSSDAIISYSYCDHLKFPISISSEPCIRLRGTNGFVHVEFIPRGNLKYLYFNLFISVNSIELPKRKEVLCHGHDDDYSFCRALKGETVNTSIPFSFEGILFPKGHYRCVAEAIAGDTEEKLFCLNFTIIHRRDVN
Protocol: Cells were washed and re-suspended in lysis buffer containing 1:100 dithiothreitol (DTT) (Bio-Lab), and phosphatase and protease inhibitors (Thermo Scientific). Samples were loaded on a precasted Criterion TGX gel (BIO-RAD, UK) and transferred onto nitrocellulose membrane. Blots were blocked with 5% milk or bovine serum albumin (BSA) in TBST (Tris buffer saline with TWEEN 20) for 1 hour, followed by incubation with primary and secondary antibodies. Membranes were developed using the ECL kit (Thermo Scientific).
Toll-like receptors were activated in mouse BMDCs (bone marrow dendritic cells) by specific agonists, and the effect of receptor activation was determined via Western blot for phosphorylation of p38 MAP kinase, which is downstream of TLRs.

Molecule: O=C1Nc2ccc(I)cc2C1=Cc1cc(Br)c(O)c(Br)c1 [GW5074, 3-(3,5-dibromo-4-hydroxy-benzylidene)-5-iodo-1,3-dihydro-indol-2-one, reference compound]
reduction of monocyte migration ([1]; 5 μM GW5074, 30 minutes, MCP-1 (50 ng/nl) and RANTES (70 ng/ml)): about 80%
chemotaxis of THP-1 cells in vitro (THP-1 cells): decrease chemotaxis of THP-1 cells

ROS formation in human monocytes (human monocytes): no effect on ROS formation
Molecule: CCCCCCCCCCCCCCCC(=O)OCC(COP(=O)([O-])OCC[N+](C)(C)C)OC(=O)CCCC(=O)O (stereo not drawn) [PGPC, 1-palmitoyl-2-glutaryl-phosphatidylcholine, reference compound]
reduction of monocyte chemotaxis towards MCP-1 and RANTES (50 ng/ml each) [1]: ~50%

Molecule: CCCCCCCCOC[C@H](COP(=O)([O-])OCC[N+](C)(C)C)OCCCCC(=O)O [VB-207, (R)-1-octyl-2-(4′-carboxyl)butyl-sn-glycero-3-phosphocholine]
LPS-induced signaling (TLR4): neither VB-207 nor OB-VB207 exhibited such an inhibitory effect

Molecule: phosphatidylcholine [PC, reference compound]
reduction of monocyte chemotaxis towards MCP-1 and RANTES (50 ng/ml each) [1]: did not reduce the number of migrating cells

— patent US20150320773A1, “TREATMENT OF INFLAMMATION” (Vascular Biogenics Ltd., priority 2011, published 2015)
